In assay [1] the target is T1, human TPC2 L11A/L12A (TPC2^PM) (Homo sapiens, UniProt Q8NHX9, L11A/L12A).
T1 construct: FLAG (C); V5 (C); expressed in transfected cells; host or cells: HEK293
Put plainly: Inside-out patch-clamp of PI(3,5)P2-induced TPC2^PM Na+ currents (WT pore). Type of assay: cell-based. The settings on record: for current, trace of PI103 on WT TPC2 channel: voltage -1.20E+02, successive trace points. On the procedure: (§1) After 24 h of transfection, human TPC1^PM or TPC2^PM channel currents were acquired at room temperature using an EPC-10 amplifier and PatchMaster software (HEKA) or a MultiClamp 700B amplifier and pCLAMP software (Axon Instruments). […] Patch pipettes were polished with a resistance of 2–3 MΩ for recording. Similarly, for whole-cell recording to allow inhibitor application on the extracellular side, the K^+-based solution was used as the pipette solution, and the Na^+-based solution was used in the bath.
Dose curves were fitted by the Hill logistic equation. τon and τoff were acquired from singe exponential fitting.

The target in assay [2] is T2, human TPC2^PM Y312A mutant (Homo sapiens, UniProt Q8NHX9, L11A/L12A/Y312A).
T2 construct: FLAG (C); V5 (C); expressed in transfected cells; host or cells: HEK293
Put plainly: Inside-out patch-clamp, PI(3,5)P2-activated TPC2^PM Y312A. Type of assay: cell-based. The settings on record: for current, trace of PI103 on Y312A of TPC2 channel: successive trace points. On the procedure: as §1
In general terms: The patch-clamp technique gives a direct electrical read-out from membranes.

The target in assay [3] is T3, human TPC2^PM H699A mutant (Homo sapiens, UniProt Q8NHX9, H699A/L11A/L12A).
T3 construct: FLAG (C); V5 (C); expressed in transfected cells; host or cells: HEK293
Put plainly: Inside-out patch-clamp, PI(3,5)P2-activated TPC2^PM H699A. To be noted: for current, trace of PI103 on H699A of TPC2 channel: voltage -1.20E+02, successive trace points. It is filed as cell-based. Here is the method:
as §1

The target in assay [4] is T4, human TPC2^PM Y312A/H699A mutant (Homo sapiens, UniProt Q8NHX9, H699A/L11A/L12A/Y312A).
T4 construct: FLAG (C); V5 (C); expressed in transfected cells; host or cells: HEK293
The assay can be described thus: Inside-out patch-clamp, PI(3,5)P2-activated TPC2^PM Y312A/H699A. Type of assay: cell-based. The settings on record: 0.3 μM PI(3,5)P2 alone, trace, voltage -1.20E+02. On the procedure:
as §1

The subject of assay [5] is TPCs. The settings on record: read-out: IC50 inhibition of TPCs; cited from earlier work.
In assay [6] the test system is lysosomal TPC2. The settings on record: cited from earlier work.
The subject of assay [7] is Ebola virus. The settings on record: read-out: IC50 virus entry; cited from earlier work.
Assay [8] deals with T5, human TPC2 (Homo sapiens, UniProt Q8NHX9).
T5 construct: FLAG (C); V5 (C); expressed in transfected cells; host or cells: HEK293
Put plainly: Imaging of NAADP-evoked Ca2+ elevation (GCaMP6f) after microinjection in TPC2-expressing HEK293 cells. It is filed as cell-based. Here is the method:
Ca^2+ imaging analysis of NAADP-evoked Ca^2+ elevation was performed as we recently described. Briefly, cells were co-transfected with cDNA constructs of human TPC2 and the Ca^2+ reporter GCaMP6f, and the transfected cells were identified by GCaMP6f fluorescence. Fluorescence was monitored with an Axio Observer A1 microscope equipped with an AxioCam MRm digital camera and ZEN Blue 2 software containing a physiology module (Carl Zeiss) at a sampling frequency of 2 Hz. Cell injection was performed with a FemtoJet microinjector (Eppendorf). The pipette solution contained 110 mM KCl, 10 mM NaCl, and 20 mM Hepes (pH 7.2) supplemented with Dextran (10,000 MW)-Texas Red (0.3 mg/ml) and NAADP (100 nM) or vehicle. When needed, 10 µM YM201626 or apilimod at was added to the pipette solution. […] To minimize interference by contaminated Ca^2+, the pipette solution was always treated with Chelex 100 resin (#C709, Sigma-Aldrich) immediately before use. Microinjection (0.5 s at 150 hPa) was made ~30 s after pipette tip insertion into cells. […] Successful injection was verified by fluorescence of the co-injected Texas Red. Elevation in intracellular Ca^2+ concentration was reported by a change in fluorescence intensity measured as ΔF/F0, calculated from NAADP microinjection-induced maximal changes in fluorescence (ΔF at the peak) divided by the fluorescence immediately before microinjection (F0).

Assay [9] deals with T1, human TPC2 L11A/L12A (TPC2^PM). Put plainly: Whole cell patch-clamp of NAADP (microinjection)-induced TPC2^PM currents in HEK293 cells. The arrangement: averaged NAADP-induced whole cell current trace: unit not given here. Type of assay: cell-based. On the procedure: Whole cell patch-clamp recording of the NAADP (microinjection)-induced TPC2^PM currents was performed as we reported. […] The cells were visualized under an infrared differential interference contrast optics microscope (Zeiss). Currents were recorded by voltage ramps from −120 to +120 mV over 400 ms for every 2 s with a holding potential of 0 mV. After a whole cell recording configuration was achieved, an injection pipette was inserted into the cell and the baseline of the whole cell current was recorded. Microinjection of NAADP was performed as above in imaging analysis of NAADP-evoked Ca^2+ release. The NAADP-induced currents were obtained by subtraction of the baseline from NAADP injection-induced currents.

“And” between values parts separate entries of the source, which are not always exact repeats. Equal values may be shown once. Read-outs that look alike come from different tables or passages of the source.

T5 sequence (Q8NHX9 whole entry): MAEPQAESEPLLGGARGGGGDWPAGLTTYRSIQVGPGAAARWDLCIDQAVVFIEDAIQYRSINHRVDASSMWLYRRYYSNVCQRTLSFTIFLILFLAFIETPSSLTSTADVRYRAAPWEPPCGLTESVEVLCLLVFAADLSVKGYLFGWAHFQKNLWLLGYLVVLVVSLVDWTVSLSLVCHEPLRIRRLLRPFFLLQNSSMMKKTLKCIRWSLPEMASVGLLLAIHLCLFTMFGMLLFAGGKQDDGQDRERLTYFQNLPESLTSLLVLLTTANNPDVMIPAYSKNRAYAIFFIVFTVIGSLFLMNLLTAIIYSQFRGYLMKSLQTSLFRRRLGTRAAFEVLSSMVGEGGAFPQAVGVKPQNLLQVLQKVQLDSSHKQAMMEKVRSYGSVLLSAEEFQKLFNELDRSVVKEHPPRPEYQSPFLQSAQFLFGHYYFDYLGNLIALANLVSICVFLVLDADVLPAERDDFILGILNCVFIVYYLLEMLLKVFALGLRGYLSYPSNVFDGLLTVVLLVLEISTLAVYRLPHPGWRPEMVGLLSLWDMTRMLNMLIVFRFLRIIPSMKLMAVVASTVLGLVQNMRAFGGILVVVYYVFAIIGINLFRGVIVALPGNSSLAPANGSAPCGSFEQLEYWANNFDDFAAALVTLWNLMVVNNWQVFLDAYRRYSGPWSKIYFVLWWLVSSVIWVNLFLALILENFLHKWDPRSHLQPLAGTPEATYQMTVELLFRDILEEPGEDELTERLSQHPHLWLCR
T3 sequence (Q8NHX9 whole entry L11A/L12A/H699A): as the sequence (Q8NHX9 whole entry) above, with L11A, L12A, H699A counted along it
T1 sequence (Q8NHX9 whole entry L11A/L12A): as the sequence (Q8NHX9 whole entry) above, with L11A, L12A counted along it
T2 sequence (Q8NHX9 whole entry L11A/L12A/Y312A): as the sequence (Q8NHX9 whole entry) above, with L11A, L12A, Y312A counted along it
T4 sequence (Q8NHX9 whole entry L11A/L12A/Y312A/H699A): as the sequence (Q8NHX9 whole entry) above, with L11A, L12A, Y312A, H699A counted along it

Take `Oc1cccc(-c2nc(N3CCOCC3)c3oc4ncccc4c3n2)c1` [PI-103]: the “fold higher IC50 than that of YM201636” value in [1] (WT TPC2^PM) is reported as 4 fold. For the same compound, the IC50 (as a rule, the concentration that inhibits the measured activity by half) in [1] (read-out: IC50 for inhibition of PI(3,5)P2-induced human TPC2 channel Na+ currents) was 0.64 µM; in assay [2], 13.9 µM. Moreover, in [3] (0.3 μM PI(3,5)P2, inside-out), the “channel's blockade in H699A mutant” value is reported as “largely abolished”.
For `Oc1cccc(-c2nc(N3CCOCC3)c3oc4ncccc4c3n2)c1` [PI103], the “current, trace of PI103 on WT TPC2 channel” value in assay [1] (0.3 μM PI(3,5)P2 + 0.2 μM PI103) was -1.97E-09 A; in assay [1] (0.3 μM PI(3,5)P2 + 0.5 μM PI103), -1.21E-09 A. Also, the “current, trace of PI103 on Y312A of TPC2 channel” value in assay [2] (0.3 μM PI(3,5)P2 + 2.0 μM PI103, voltage -1.20E+02) is listed as -3.13E-09 A; in assay [2] (0.3 μM PI(3,5)P2 + 5.0 μM PI103, voltage -1.20E+02), -1.87E-09 A; in [2] (0.3 μM PI(3,5)P2 + 20.0 μM PI103, voltage -1.20E+02), -1.61E-09 A. In addition, the results for the “current, trace of PI103 on H699A of TPC2 channel” value in [3] (0.3 μM PI(3,5)P2 + 0.4 μM PI103), in assay [3] (0.3 μM PI(3,5)P2 + 20.0 μM PI103) and in assay [3] (0.3 μM PI(3,5)P2 + 50.0 μM PI103) were -4.01E-09 A, -3.66E-09 A and -3.37E-09 A, respectively.
Consider `CCCCCCCC(=O)OC[C@H](COP(=O)(O)OC1[C@H](O)[C@H](OP(=O)(O)O)C(O)[C@H](OP(=O)(O)O)[C@H]1O)OC(=O)CCCCCCC` (some centres unmarked) [PI(3,5)P2, phosphatidylinositol 3,5-bisphosphate], for which the “deactivation rate τoff on wash-off” value in assay [1] (1.0 μM PI(3,5)P2, n = 7) is reported as 20.8 ± 0.9 s. Also, in [1] (1.0 μM PI(3,5)P2 from cytosolic side, n = 8), the “activation rate τon of human TPC2 channels” value was determined as 9.0 ± 0.5 s. For the same compound, in assay [1] (PI(3,5)P2 wash on), the “kinetics (Tau) of TPC2PM currents, mean value” is 9.035. Moreover, in assay [1] (individual cells 1-5, Fig 3D), the “Tau of TPC2PM currents, PI(3,5)P2 wash on after Y201636, single cells” value was 48.718 and 63.746 and 69.896 and 56.91 and 53.316. For the same compound, the “Tau of TPC2PM currents, PI(3,5)P2 wash off, single cells” value in assay [1] (individual cells 1-7, Fig 3D) was 21.372 and 18.6234 and 21.6704 and 18.1982 and 20.854 and 19.4692 and 25.31. Moreover, the “Tau of TPC2PM currents, PI(3,5)P2 wash on, single cells” value in assay [1] (individual cells 1-8, Fig 3D) is 8.4824 and 9.9858 and 7.6828 and 7.7804 and 8.8206 and 10.9364 and 11.3272 and 7.265. For the same compound, in assay [1] (mean, 5 cells, Fig 3D), the “Averaged kinetics (Tau) of TPC2PM currents, PI(3,5)P2 wash on after YM201636, mean value” was 11.9903. Further, in assay [1] (mean, 7 cells, Fig 3D), the “Averaged kinetics (Tau) of TPC2PM currents, PI(3,5)P2 wash off, mean value” amounted to 20.7853. Besides, the “Averaged kinetics (Tau) of TPC2PM currents, PI(3,5)P2 wash on, mean value” in assay [1] (mean, 8 cells, Fig 3D) is recorded as 9.035. Moreover, the “current(A)” value is recorded as -2.83E-09 A in assay [2] (Y312A TPC2, 0.3 μM PI(3,5)P2 alone, trace, voltage -1.20E+02) and -4.54E-09 A in assay [4].
Consider `O=C1C[C@@H](c2ccc(O)cc2)Oc2cc(O)cc(O)c21` [Naringenin], for which the IC50 in assay [5] is roughly 200 µM.
Consider `COc1ccc2cc1Oc1ccc(cc1)C[C@H]1c3cc(c(OC)cc3CCN1C)Oc1c(OC)c(OC)cc3c1[C@H](C2)N(C)CC3` [tetrandrine], for which the “inhibition of (lysosomal) TPC2 currents” value in assay [6] (0.5 µM) was 60%; in [6] (10 µM), 54% and 50–60%. For the same compound, the IC50 in assay [7] was 0.055 µM.
For the compound `Cc1cccc(/C=N/Nc2cc(N3CCOCC3)nc(OCCc3ccccn3)n2)c1` [apilimod], the “reduction of the NAADP-evoked Ca2+ elevation” value in [8] (1 µM microinjected together with NAADP (100 nM), HEK293 cells) is “largely unaffected”. The “NAADP-evoked calcium elevation (change in Ca2+ indicator fluorescence), individual cells” value in [8] (Fig 1B source data, 1 µM microinjected with NAADP) is 2.593 and 3.9665 and 6.13 and 1.0864 and 2.248 and 3.0742. Further, the “inhibition of the NAADP-induced TPC2^PM currents” value in assay [9] (1 µM in bath solution ~10 min, whole cell, −120 mV) is listed as “little effect”. The “averaged NAADP-induced whole cell current trace” value in assay [9] (1 uM, Voltage -119.76) is listed as -0.4148; in assay [9] (1 uM, Voltage -119.82) it was -0.4172; in assay [9] (1 uM, Voltage -119.88), -0.4198; in [9] (1 uM, Voltage -119.94), -0.4267; in assay [9] (1 uM, Voltage -120, Fig 1C source data) it was -0.4289. In addition, the “I, current density of NAADP-induced whole cell TPC2^PM currents, individual cells” value in assay [9] (1 uM, −120 mV, Fig 1D source data) was 94.6904 pA/pF and 47.5492 pA/pF and 12.9726 pA/pF and 46.7536 pA/pF and 31.7662 pA/pF and 23.2025 pA/pF.
As to `COc1ccc([C@H]2N[C@H](C(=O)O)Cc3c2[nH]c2ccccc32)cc1CN1CCN(c2ccccc2F)CC1` [Ned-19], the “inhibition of lysosomal TPC2 activity” value in assay [6] (200 µM) is ~ 75%.
Take `COc1cc2c(cc1Oc1ccccc1)C(Cc1ccc(Oc3ccccc3)cc1)N(C)CC2` (centres unmarked) [SG-094]: the “inhibition of (lysosomal) TPC2 currents” value in [6] (10 µM) was ~ 75%.

Source of the values: article PMC9308409 (Communications Biology, 2022).
